{"source": "ChEMBL document CHEMBL1201862", "about": "“PubChem BioAssay data set” (2004)", "test_in_all_cases": "growth of human tumour cells (NCI), 48 h", "key": {"[1]": {"test_system": "DLD-1"}, "[2]": {"test_system": "KM12"}, "[3]": {"test_system": "HOP-18"}, "[4]": {"test_system": "LXFL 529"}, "[5]": {"test_system": "RXF 631"}, "[6]": {"test_system": "T47D"}, "[7]": {"test_system": "SR"}, "[8]": {"test_system": "PC-3"}}, "note": "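Exposure lasted 48 hours, with cells grown in 96-well plates and compounds tested at five concentrations. Here, GI50 denotes the concentration required for 50% inhibition of growth.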 Activity calls are given as the source filed them. No stated cut-off is given here; in the data, active = GI50 up to about 1.1 µM and inactive = higher.", "data": [{"smiles": "Nc1cccc2c1C1=NNC(=O)CC1C2", "note": "(stereo not drawn)", "values": [{"measurement": "GI50", "setting": "[1]", "value": "> 100 µM (inactive)"}, {"measurement": "GI50", "setting": "[2]", "value": "> 100 µM (inactive)"}]}, {"smiles": "CNC(=O)SCC(N)C(=O)O", "note": "(stereo not drawn)", "values": [{"measurement": "GI50", "setting": "[3]", "value": "> 78.2 µM (inactive)"}, {"measurement": "GI50", "setting": "[1]", "value": "> 100 µM (inactive)"}, {"measurement": "GI50", "setting": "[2]", "value": "> 100 µM (inactive)"}]}, {"smiles": "COc1ccc(C2SCc3nc4ccccc4n32)cc1", "note": "(stereo not drawn)", "values": [{"measurement": "GI50", "setting": "[4]", "value": "5.48 µM (inactive)"}, {"measurement": "GI50", "setting": "[3]", "value": "> 100 µM (inactive)"}, {"measurement": "GI50", "setting": "[5]", "value": "7.26 µM (inactive)"}]}, {"smiles": "C[C@]12CC[C@@H]3c4ccc(OCCN5CCCC5)cc4CC[C@H]3[C@@H]1CCC2=O", "values": [{"measurement": "GI50", "setting": "[6]", "value": "36.1 µM (inactive)"}, {"measurement": "GI50", "setting": "[7]", "value": "29.9 µM (inactive)"}, {"measurement": "GI50", "setting": "[8]", "value": "23.7 µM (inactive)"}]}, {"smiles": "NC(CCP(=O)(O)CCC1C=CC=CC1)C(=O)O", "note": "(stereo not drawn)", "values": [{"measurement": "GI50", "setting": "[6]", "value": "> 100 µM (inactive)"}, {"measurement": "GI50", "setting": "[2]", "value": "> 100 µM (inactive)"}, {"measurement": "GI50", "setting": "[7]", "value": "> 100 µM (inactive)"}, {"measurement": "GI50", "setting": "[8]", "value": "> 100 µM (inactive)"}]}, {"smiles": "COc1cc(-c2cc(=O)c3c(O)c(CC=C(C)C)c(O)cc3o2)ccc1O", "values": [{"measurement": "GI50", "setting": "[6]", "value": "9.77 µM (inactive)"}, {"measurement": "GI50", "setting": "[7]", "value": "14.7 µM (inactive)"}, {"measurement": "GI50", "setting": "[8]", "value": "16.7 µM (inactive)"}]}, {"smiles": "O=C(Nc1ccccc1F)c1c(O)nc2sccn2c1=O", "values": [{"measurement": "GI50", "setting": "[6]", "value": "> 10 µM (inactive)"}, {"measurement": "GI50", "setting": "[2]", "value": "> 10 µM (inactive)"}, {"measurement": "GI50", "setting": "[7]", "value": "> 10 µM (inactive)"}, {"measurement": "GI50", "setting": "[8]", "value": "> 10 µM (inactive)"}]}, {"smiles": "O=C1c2cccc3cc4ccccc4c(c23)C(=O)N1CCNCCNCCNCCN1C(=O)c2cccc3cc4ccccc4c(c23)C1=O", "values": [{"measurement": "GI50", "setting": "[3]", "value": "0.0405 µM (active)"}, {"measurement": "GI50", "setting": "[1]", "value": "< 0.014 µM (active)"}]}, {"smiles": "CCOC(=O)CSc1nc(N)c2c(-c3ccc(OC)c(OC)c3)c3c(nc2n1)CCCC3", "values": [{"measurement": "GI50", "setting": "[6]", "value": "> 100 µM (inactive)"}, {"measurement": "GI50", "setting": "[2]", "value": "> 100 µM (inactive)"}, {"measurement": "GI50", "setting": "[7]", "value": "> 100 µM (inactive)"}, {"measurement": "GI50", "setting": "[8]", "value": "> 100 µM (inactive)"}]}]}
